Patent publication US20130102631A1, “NOVEL MICROBIOCIDAL DIOXIME ETHER DERIVATIVES” (SYNGENTA CROP PROTECTION LLC, priority 2010, published 2013)

Key:
[1] = test system: Mycosphaerella arachidis (Cercospora arachidicola); assay: Mycosphaerella arachidis (Cercospora arachidicola) / liquid culture (early leaf spot); assay type: cell-based; conditions: at ≦200 ppm, liquid culture PDB, inhibition of growth photometrically 4-5 days after application, read-out: control of Mycosphaerella arachidis
Experimental: Mycosphaerella arachidis (Cercospora arachidicola)/Liquid Culture (Early Leaf Spot): Conidia of the fungus from cryogenic storage were directly mixed into nutrient broth (PDB potato dextrose broth). After placing a DMSO solution of test compound into a 96-well microtiter plate, the nutrient broth containing the fungal spores was added. The test plates are incubated at 24° C. and the inhibition of growth was determined photometrically 4-5 days after application. […]-2.509; 5.561; 2.561; P.57; 2.513; 2.559; 2.558; 2.557; 2.556; 2.555; 2.374; 2.553; 2.552; 2.551 (fraction B); 2.551 (fraction A); 2.544; 2.541; 2.539; 2.537; 2.536; 2.533; 2.532; 2.531; 2.530; 2.528; 2.526; 2.525 (fraction B); 2.525 (fraction A); 2.524; 2.520; 2.519; 2.510; 2.518; 2.517; 2.516; 2.514; […].002; 2.512; 2.511; 2.514

[2] = test system: Glomerella lagenarium; assay: Glomerella lagenarium (Colletotrichum lagenarium) / liquid culture (anthracnose); assay type: cell-based; conditions: Colletotrichum orbiculare; at ≦200 ppm, liquid culture PDB, inhibition of growth photometrically 3-4 days after application; read-out: control of Glomerella lagenarium
Experimental: Glomerella lagenarium (Colletotfichum lagenarium)/Liquid Culture (Anthracnose): Conidia of the fungus from cryogenic storage were directly mixed into nutrient broth (PDB potato dextrose broth). After placing a DMSO solution of test compound into a 96-well microtiter, the nutrient broth containing the fungal spores was added. The test plates were incubated at 24° C. and the inhibition of growth is measured photometrically 3-4 days after application. […]-2.509; 5.561; 2.561; E/E-2.208; P.57; 2.513; 2.559; 2.556; 2.555; 2.374; 2.552; 2.548; 2.544; 2.541; 2.540; 2.539; 2.537; 2.536; 2.533; 2.531; 2.530; 2.528; 2.526; 2.519; 2.510; 2.516; 2.514; E/E-5.167; E/E-3.002; 2.512; 2.514; Z/E-2.474

[3] = test system: Mycosphaerella graminicola (Septoria tritici); assay: Mycosphaerella graminicola (Septoria tritici) / liquid culture (Septoria blotch); assay type: cell-based; conditions: Zymoseptoria tritici; at ≦200 ppm, liquid culture PDB, inhibition of growth photometrically 4-5 days after application; read-out: control of Mycosphaerella graminicola
[4] = test system: Monographella nivalis (Microdochium nivale); assay: Monographella nivalis (Microdochium nivale) / liquid culture (foot rot cereals); assay type: cell-based; conditions: at ≦200 ppm, liquid culture PDB, inhibition of growth photometrically 4-5 days after application, read-out: control of Monographella nivalis
Experimental: Monographella nivalis (Microdochium nivale)/Liquid Culture (Foot Rot Cereals): Conidia of the fungus from cryogenic storage were directly mixed into nutrient broth (PDB potato dextrose broth). After placing a DMSO solution of test compound into a 96-well microtiter plate, the nutrient broth containing the fungal spores was added. The test plates were incubated at 24° C. and the inhibition of growth was determined photometrically 4-5 days after application. […].57; 2.513; 2.559; 2.558; 2.556; 2.555; 2.374; 2.553; 2.551 (fraction B); 2.551 (fraction A); 2.548; 2.544; 2.542; 2.541; 2.539; 2.536; 2.535; 2.533; 2.530; 2.528; 2.526; 2.525 (fraction B); 2.525 (fraction A); 2.524; 2.519; 2.518; 2.516; 2.514; E/E-5.167; 2.512; 2.514

[5] = test system: Gaeumannomyces graminis; assay: Gaeumannomyces graminis / liquid culture (take-all of cereals); assay type: cell-based; conditions: at ≦200 ppm, liquid culture PDB, inhibition of growth photometrically 4-5 days after application, read-out: control of Gaeumannomyces graminis
Experimental: Gaeumannomyces graminis/Liquid Culture (Take-All of Cereals): Mycelial fragments of the fungus from cryogenic storage were directly mixed into nutrient broth (PDB potato dextrose broth). After placing a DMSO solution of test compound into a 96-well microtiter plate, the nutrient broth containing the fungal spores is added. The test plates were incubated at 24° C. and the inhibition of growth was determined photometrically 4-5 days after application. […]-2.509; 5.561; 2.561; P.57; 2.513; 2.559; 2.558; 2.557; 2.556; 2.555; 2.374; 2.553; 2.552; 2.551 (fraction B); 2.551 (fraction A); 2.539; 2.533; 2.528; 2.526; 2.525 (fraction B); 2.525 (fraction A); 2.524; 2.523; 2.521; 2.520; 2.519; 2.510; 2.518; 2.516; 2.514; E/E-5.167; E/E-3.002; 2.512; E/E-2.508

[6] = test system: Phaeosphaeria nodorum (Septoria nodorum); assay: Phaeosphaeria nodorum (Septoria nodorum) / wheat / leaf disc preventative (glume blotch); assay type: in vivo; conditions: Parastagonospora nodorum, foliar, wheat leaf segments cv Kanzler, inoculated 2 days after application, assessed 5-7 days after application
Experimental: Phaeosphaeria nodorum (Septoria nodorum)/Wheat/Leaf Disc Preventative (Glume Blotch): Wheat leaf segments cv Kanzler were placed on agar in a 24-well plate and sprayed with formulated test compound diluted in water at an application rate of 200 ppm. The leaf disks are inoculated with a spore suspension of the fungus 2 days after application. The inoculated test leaf disks are incubated at 20° C. and 75% relative humidity under a light regime of 12/12 h (light/dark) in a climate cabinet and the activity of a compound is assessed as percent disease control compared to untreated when an appropriate level of disease damage appears in untreated check leaf disks (5-7 days after application). […]-2.508; 5.561; 2.561; E/E-2.208; P.57; 2.513; 2.559; 2.558; 2.557; 2.556; 2.555; 2.374; 2.544; 2.541; 2.539; 2.537; 2.536; 2.535; 2.533; 2.530; 2.526; 2.519; 2.510; 2.516; 2.514; E/E-5.167; E/E-3.002; 2.512

[7] = test system: Blumeria graminis f. sp. tritici (Erysiphe graminis f. sp. tritici); assay: Blumeria graminis f. sp. tritici / wheat / leaf disc preventative (powdery mildew on wheat); assay type: in vivo; conditions: foliar, wheat leaf segments cv. Kanzler, inoculated 1 day after application, assessed 6-8 days after application
Experimental: Blumeria graminis f. sp. tritici (Erysiphe graminis f. sp. tritici)/Wheat/Leaf Disc Preventative (Powdery Mildew on Wheat):
Wheat leaf segments cv. Kanzler were placed on agar in a 24-well plate and sprayed with the formulated test compound diluted in water at an application rate of 200 ppm. The leaf disks were inoculated by shaking powdery mildew infected plants above the test plates 1 day after application. The inoculated leaf disks were incubated at 20° C. and 60% relative humidity under a light regime of 24 h darkness followed by 12 h/12 h (dark/light) in a climate chamber and the activity of a compound was assessed as percent disease control compared to untreated when an appropriate level of disease damage appears on untreated check leaf segments (6-8 days after application). The following compounds gave at least 80% control of Blumeria graminis: E/E-2.168, E/E-2.474, E/E-2.002; 5.561; 2.561; E/E-2.208; 2.513; 2.559; 2.557; 2.556; 2.555; 2.374; 2.552; 2.537; 2.533; 2.530; 2.528; 2.526; 2.519; 2.510; 2.516; 2.514; E/E-5.167; E/E-3.002; 2.512; 2.511

| SMILES | inhibition of growth at up to 200 µg/mL [1] [%] | inhibition of growth at up to 200 µg/mL [2] [%] | inhibition of growth at up to 200 µg/mL [3] [%] | inhibition of growth at up to 200 µg/mL [4] [%] | inhibition of growth at up to 200 µg/mL [5] [%] | pest or weed control at 200 ppm [6] [%] | pest or weed control at 200 ppm [7] [%] |
| --- | --- | --- | --- | --- | --- | --- | --- |
| Cc1cccc(/C(=N\OCC(C)(C)CO/N=C2\CCCc3ccc(C)nc32)c2ccccc2)n1 [Z/E-2.474] | ≥ 80 | ≥ 80 | – | – | – | – | – |
| C/C(=N\OCC(C)(C)CO/N=C1\CCCc2ccc(C)nc21)c1ncc(Cl)cc1F [E/E-2.509] | ≥ 80 | ≥ 80 | ≥ 80 | ≥ 80 | ≥ 80 | – | – |
| Cc1ccc2c(n1)/C(=N/OCC(C)(C)CO/N=C(/c1ccccn1)c1ncc(C(F)(F)F)cc1Cl)CCC2 [Compound 2.520] | ≥ 80 | – | – | – | ≥ 80 | – | – |
| CCOC(=O)c1ccc(/C(C)=N\OCC(C)(C)CO/N=C2\CCCc3ccc(C)nc32)nc1C(F)(F)F [Compound 2.523] | – | – | – | – | ≥ 80 | – | – |
| C/C(=N\OCC(C)(C)CO/N=C1\CCCc2ccc(C)nc21)c1ncc(Cl)cc1O [Compound 2.548] | – | ≥ 80 | ≥ 80 | ≥ 80 | – | – | – |
| Cc1ccc2c(n1)/C(=N/OCC(C)(C)CO/N=C(/c1ccccc1)c1ncc(C(F)(F)F)cc1Cl)CCC2 [Compound 2.521] | – | – | – | – | ≥ 80 | – | – |
| Cc1ccc2c(n1)/C(=N/OCC(C)(C)CO/N=C(\c1ncc(Cl)cc1F)C(C)Cl)CCC2 (stereo not drawn) [Compound 2.545] | – | – | ≥ 80 | – | – | – | – |
| Cc1ccc2c(n1)/C(=N/OCC(C)(C)CO/N=C(/c1ncc(Cl)cc1Cl)C(C)C)CCC2 [Compound 2.542] | – | – | ≥ 80 | ≥ 80 | – | – | – |
| CC/C(=N/OCC(C)(C)CO/N=C1\CCCc2ccc(C)nc21)c1ccc(C(F)(F)F)cn1 [Compound 2.524] | ≥ 80 | – | – | ≥ 80 | ≥ 80 | – | – |
| CC/C(=N\OCC(C)(C)CO/N=C1\CCCc2ccc(C)nc21)c1ncc(Cl)cc1Cl [Compound 2.549] | – | – | ≥ 80 | – | – | – | – |
| CSc1nc(/C=N/OCC(C)(C)CO/N=C2\CCCc3ccc(C)nc32)ccc1C#N [Compound 2.535] | – | – | ≥ 80 | ≥ 80 | – | ≥ 80 | – |
| C/C(=N\OCC(C)(C)CO/N=C1\CCCc2ccc(C)nc21)c1ncc(C(F)(F)F)cc1Cl (single isomer, unassigned) [2.551 (fraction B)] | ≥ 80 | – | ≥ 80 | ≥ 80 | ≥ 80 | – | – |
| Cc1cc(C)nc(C(=NOCCCO/N=C2\CCCc3ccc(C)nc32)c2cc(C)cc(C)n2)c1 [Compound 2.557] | ≥ 80 | – | – | – | ≥ 80 | ≥ 80 | ≥ 80 |
| C/C(=N\OCC(C)(C)CO/N=C1\CCCc2ccc(C)nc21)c1cc(C(C)(C)C)ccn1 [Compound 2.541] | ≥ 80 | ≥ 80 | ≥ 80 | ≥ 80 | – | ≥ 80 | – |
| Cc1ccc2c(n1)/C(=N/OCC(C)(C)CO/N=C(\c1ccc(Cl)cc1)c1ccccn1)CCC2 [Compound 2.532] | ≥ 80 | – | ≥ 80 | – | – | – | – |
| C/C(=N\OCC(C)(C)CO/N=C1\CCCc2ccc(C)nc21)c1cccc(C#N)n1 [Compound 2.536] | ≥ 80 | ≥ 80 | ≥ 80 | ≥ 80 | – | ≥ 80 | – |
| COC(=O)c1ccc(C(F)(F)F)nc1/C(C)=N/OCC(C)(C)CO/N=C1\CCCc2ccc(C)nc21 [Compound 2.540] | – | ≥ 80 | ≥ 80 | – | – | – | – |
| C/C(=N\OCC(C)(C)CO/N=C1\CCCc2ccc(C)nc21)c1cc(C#N)ccn1 [Compound 2.531] | ≥ 80 | ≥ 80 | ≥ 80 | – | – | – | – |
| Cc1ccc2c(n1)/C(=N/OCC(C)(C)CON=C(c1ccccn1)c1ccccn1)CCC2 [Compound 2.511] | ≥ 80 | – | – | – | – | – | ≥ 80 |
| COC(=O)C/C(=N/OCC(C)(C)CO/N=C1\CCCc2ccc(C)nc21)c1ncc(Cl)cc1F [Compound 2.518] | ≥ 80 | – | – | ≥ 80 | ≥ 80 | – | – |
| Cc1ccc2c(n1)/C(=N/OCC(C)(C)CO/N=C(/c1cccc(Br)n1)c1ccccc1C)CCC2 [Compound 2.539] | ≥ 80 | ≥ 80 | ≥ 80 | ≥ 80 | ≥ 80 | ≥ 80 | – |
